{
  "source": "patent US6518050B1",
  "about": "“Process for producing and extracting aromatic compounds” (Revico, priority 1998, dated 2003)",
  "key": {"Sporobolomyces odorus [1]": {"system": "Sporobolomyces odorus", "assay": "Toxicity of γ-decalactone: yeast growth kinetics on distilling slop medium containing lactone", "assay_type": "cell-based", "protocol": "Time dependency of the amount of biomass produced during cultivation of this yeast, was tracked by measuring the optical density (OD) of the cell suspension at 620 nm. On the spectrophotometer, 0 was obtained with a sample of pure medium (baseline). In order to determine whether γ-decalactone is toxic for cells, yeast growth kinetics on a distilling slop medium containing either 50 mg/l or 250 mg/l of lactone were obtained (FIG. 11). […] Beyond this point, a shift was observed. […] Indeed, the maximum achieved OD was 4 instead of 15 in the control. This same phenomenon was already observed by Ferron and al. (1996) who determined that the compatible dose with a non-zero cell growth rate is between 100 and 200 mg/l. This would partly explain why lactone concentrations of 250 to 300 mg/l were not exceeded under the retained experimental conditions."}, "Sporobolomyces odorus [2]": {"system": "Sporobolomyces odorus", "assay": "Biomass production (OD at 620 nm) of S. odorus cultures on distilling slops with added precursor or additives", "assay_type": "cell-based", "details": "for Biomass (OD at 620 nm): culture period of 77 hours; for OD at 620 nm: measured after 77 hours, 0 ml: 8.74; for OD620: HNCH 5 g/vial, culture period of 150 hours", "protocol": "During these culture processes, performed in a liquid medium, temperature was held at 24° C. and stirring was at 250 rpm (revolutions per minute).\nTime dependency of the amount of biomass produced during cultivation of this yeast, was tracked by measuring the optical density (OD) of the cell suspension at 620 nm. On the spectrophotometer, 0 was obtained with a sample of pure medium (baseline).\nIn order to test the effect of adding methyl ricinoleate to cultures of S. odorus on distilling slops exclusively, 1 ml of this precursor was added to cellular suspensions of 60 ml of 24 hours of age. […] Indeed, instead of a final concentration, after 77 hours, of 1.02 mg/l on distilling slops or of 6.47 mg/l when castor oil was added, we obtained concentrations of 28.23 mg/l (FIG. 8). […] So it would become rapidly a limiting factor in obtaining free ricinoleic acid from castor oil. Adding directly usable methyl ricinoleate overcomes this problem and lactone production yields are improved.\nIn order to optimize the added amount of methyl ricinoleate, we produced cultures to which we added after 24 hours either 0.83%, or 1.66%, or 10% (v/v) of methyl ricinoleate.\nAdditions of RM were performed at instants t=0, 24, 48 and 72 hours. These cultures were produced in 250 ml erlenmeyers containing 5 g of HNCH and 60 ml of sown distilling slops at an initial yeast cell density of 0.2 units of OD620 (optical density measured at 620 nm).\nWith the aim of increasing the productivity of the system by implementing an in situ extraction of γ-decalactone, two series of tests were conducted; one at an initial cell density of 0.2 (control), the other at an initial cell density of 4."}},
  "data": [
    {"smiles": "CCCCCCC1CCC(=O)O1", "note": "(stereo not shown) [γ-decalactone]", "values": [
      {"measurement": "effect on the yeast's growth", "setting": "Sporobolomyces odorus [1]; 50 mg/l lactone in distilling slop medium, first 50 hours of culture", "value": "did not affect the yeast's growth"},
      {"measurement": "microorganism growth", "setting": "Sporobolomyces odorus [1]; 250 mg of lactone in distilling slop medium", "value": "significantly reduced"},
      {"measurement": "maximum achieved OD", "setting": "Sporobolomyces odorus [1]; 250 mg of lactone, control 15", "value": 4},
      {"measurement": "toxicity exerted on yeast above (concentration)", "setting": "Sporobolomyces odorus [1]; statement in section C 1.1", "value": "above 150 mg/l"},
      {"measurement": "toxic effect observed beyond (concentration)", "setting": "Sporobolomyces odorus [1]; summary statement of section 6", "value": "> 250", "unit": "mg/L"}
    ]},
    {"smiles": "CCCCCC[C@@H](O)C/C=C\\CCCCCCCC(=O)OC", "note": "[methyl ricinoleate]", "values": [
      {"measurement": "Biomass (OD at 620 nm)", "setting": "Sporobolomyces odorus [2]; 0.06% at t = 0 hrs + 0.83% at t = 24 hrs", "value": 8.4},
      {"measurement": "OD at 620 nm", "setting": "Sporobolomyces odorus [2]; 0.5 ml RM added to 60 ml culture after 24 hours", "value": 8.00},
      {"measurement": "Biomass (OD at 620 nm)", "setting": "Sporobolomyces odorus [2]; 0.83% v/v at t = 24 hrs", "value": 8.0},
      {"measurement": "OD at 620 nm", "setting": "Sporobolomyces odorus [2]; 1 ml RM added to 60 ml culture after 24 hours", "value": 7.94},
      {"measurement": "biomass, OD", "setting": "Sporobolomyces odorus [2]; 1 ml added to 60 ml cultures of 24 hours of age, after 77 hours, 14.0 on distilling slops exclusively", "value": 11.06},
      {"measurement": "OD620", "setting": "Sporobolomyces odorus [2]; 4×0.03, 0.06 or 0.12% (v/v) of precursor", "value": 8},
      {"measurement": "OD620", "setting": "Sporobolomyces odorus [2]; 4×0.18% (v/v) of precursor", "value": 15},
      {"measurement": "OD at 620 nm", "setting": "Sporobolomyces odorus [2]; 6 ml RM added to 60 ml culture after 24 hours", "value": 8.98}
    ]}
  ]
}
